Data taken from US4010161A, “Piperazinoethyl-N-(2,3-dimethyl-5-oxo-1-phenyl-3Δ-pyrazolin- 4-yl)carbamates” (Synthelabo, priority 1973, dated 1977).
Structures can show the parent of a compound that is named as a salt.

Tests used:
Solubility in water = assay type: physicochemical
[1] = test system: oedema induced by carragenine in SJ rats; assay: Oedema induced by carragenine (anti-inflammatory effect); assay type: in vivo; conditions: Rattus norvegicus, po, per os, AD40 = 40% active dose, read-out: Inflammation induced by carragenine AD40
From the text: The test of oedema induced by carragenine in SJ rats, in accordance with the technique of Winter and colleagues, (Proc. Soc. exp. Biol. Med., 1962, III, 544) was used. The effects of the compounds of the invention are markedly lower than that of the reference product.

[2] = test system: pain induced, in CDl mice, by the intraperitoneal injection of acetic acid; assay: Koster test: pain induced by intraperitoneal injection of acetic acid; assay type: in vivo; conditions: Mus musculus, po, per os, AD50 = 50% active dose
From the text: (§1) This effect was investigated in accordance with three conventional experimental procedures.
a. Effect against pain induced, in CDl mice, by the intraperitoneal injection of acetic acid, using the method described by Koster and colleagues (Fed. Proc., 1959, 18, 42) and modified by Peterfalvi, Branceni and colleagues, (Med. Pharmacol. exp., 1966, 15, 254).

CD1 mice, tail-pinching = assay: Haffner tail-pinching test; assay type: in vivo; conditions: Mus musculus, po, per os, AD50 = 50% active dose
From the text: as §1
c. Tail-pinching test on CD1 mice, using the method of Haffner (Deutsch. med. Wachr., 1959, 55, 731).

[3] = Acute toxicity, 50% lethal dose in mice; conditions: mouse, in vivo, po; mice (CD1 strain, both sexes), per os; 50% lethal dose calculated graphically
Experimental: The experiments were carried out on mice of the CDl strain, of both sexes, and the 50% lethal doses were calculated graphically.

SMILES: Cc1c(NC(=O)OCCN2CCN(c3cccc(Cl)c3)CC2)c(=O)n(-c2ccccc2)n1C [2-(4-m-chlorophenyl-piperazino)-ethyl N-(2,3-dimethyl-5-oxo-1-phenyl-3Δ-pyrazolin-4-yl)-carbamate tartrate]
- solubility in water (Solubility in water): very soluble in water

SMILES: Cc1c(N(C)C)c(=O)n(-c2ccccc2)n1C [Aminopyrine, reference compound]
- ED40 [1]: 50 mg/kg
- ED50 [2]: 40 mg/kg
- ED50 (CD1 mice, tail-pinching): 75 mg/kg

SMILES: Cc1c(NC(=O)OCCN2CCN(c3cccc(C(F)(F)F)c3)CC2)c(=O)n(-c2ccccc2)n1C [SLB-186, 2-(4-m-Trifluoromethylphenyl-piperazino)-ethyl N-(2,3-dimethyl-5-oxo-1-phenyl-3Δ-pyrazolin-4-yl)-carbamate hydrochloride]
- ED40 [1]: 100 mg/kg
- LD50 [3]: 2000 mg/kg
- ED50 [2]: 8 mg/kg
- ED50 (CD1 mice, tail-pinching): 10 mg/kg

SMILES: Cc1c(NC(=O)OCCN2CCN(c3ccccc3)CC2)c(=O)n(-c2ccccc2)n1C [SLB-197, 2-(4-Phenyl-piperazino)-ethyl N-(2,3-dimethyl-5-oxo-1-phenyl-3Δ-pyrazolin-4-yl)-carbamate]
- ED40 [1]: > 100 mg/kg
- LD50 [3]: 400 mg/kg
- ED50 [2]: 30 mg/kg

SMILES: Cc1c(NC(=O)OCCN2CCN(c3cccc(Cl)c3)CC2)c(=O)n(-c2ccccc2)n1C [SLB-207, 2-(4-m-Chlorophenyl-piperazino)-ethyl N-(2,3-dimethyl-5-oxo-1-phenyl-3Δ-pyrazolin-4-yl)-carbamate]
- ED40 [1]: 100 mg/kg
- LD50 [3]: 990 mg/kg
- ED50 [2]: 8 mg/kg
- ED50 (CD1 mice, tail-pinching): 10 mg/kg

SMILES: Cc1c(NC(=O)OCCN2CCN(c3cccc(SC(F)(F)F)c3)CC2)c(=O)n(-c2ccccc2)n1C [SLB-208, 2-(4-m-Trifluoromethylthiophenyl-piperazino)-ethyl N-(2,3-dimethyl-5-oxo-1-phenyl-3Δ-pyrazolin-4-yl)-carbamate]
- ED40 [1]: 76 mg/kg
- LD50 [3]: > 1000 mg/kg
- ED50 [2]: 17 mg/kg

SMILES: Cc1ccc(N2CCN(CCOC(=O)Nc3c(C)n(C)n(-c4ccccc4)c3=O)CC2)cc1 [SLB-209, 2-(4-p-Tolyl-piperazino)-ethyl N-(2,3-dimethyl-5-oxo-1-phenyl-3Δ-pyrazolin-4-yl)-carbamate]
- ED40 [1]: > 100 mg/kg
- LD50 [3]: 410 mg/kg
- ED50 [2]: 25 mg/kg
- ED50 (CD1 mice, tail-pinching): 15 mg/kg

SMILES: Cc1c(NC(=O)OCCN(C)C)c(=O)n(-c2ccccc2)n1C [SLB-215, 2-Dimethylamino-ethyl N-(2,3-dimethyl-5-oxo-1-phenyl-3Δ-pyrazolin-4-yl)-carbamate]
- ED40 [1]: > 100 mg/kg
- LD50 [3]: > 1000 mg/kg
- ED50 [2]: 60 mg/kg
- solubility in water (Solubility in water): very soluble in water
